Laboratory results taken from article PMC11035424 (2024).

Legend:
[1] = tested on: dsoligo (12-ss(-)/12-ss(+)) (DNA, duplex) GCGAAACCTCCC/GGGAGGTTTCGC; test: pulldown on streptavidin magnetic beads, gel electrophoresis; settings: K+ (50 mM potassium phosphate); 5 µM compound, 5 µM DNA, pH 7.0, room temperature
[2] = tested on: VEGF (DNA, G4) CGGGGCGGGCCTTGGGCGGGGT; test: ITC; settings: K+ (50 mM potassium phosphate); 50 mM KH2PO4-K2HPO4 pH 7.0, 25 °C
[3] = tested on: VEGF (DNA, G4) CGGGGCGGGCCTTGGGCGGGGT; test: CD melting at 265 nm; settings: K+ (50 mM potassium phosphate); 50 mM potassium phosphate pH 7.0; 1.5 µM DNA, 3.0 µM compound; printed ≧
[4] = tested on: c-myc (DNA, G4) TGAGGGTGGGTAGGGTGGGTAA; test: ITC; settings: K+ (50 mM potassium phosphate); 50 mM KH2PO4-K2HPO4 pH 7.0, 25 °C; abstract misprints exponent as 10^-6
[5] = tested on: c-myc (DNA, G4) TGAGGGTGGGTAGGGTGGGTAA; test: absorption titration (383 nm, Stootman fit); settings: K+ (50 mM potassium phosphate); 50 mM KH2PO4-K2HPO4 pH 7.0; 8 µM compound
[6] = tested on: dsoligo (12-ss(-)/12-ss(+)) (DNA, duplex) GCGAAACCTCCC/GGGAGGTTTCGC; test: UV melting at 260 nm; settings: K+ (50 mM potassium phosphate); 50 mM potassium phosphate pH 7.0; 1.5 µM DNA, 3.0 µM compound
[7] = tested on: c-myc120 (DNA, G4) GAGGTATTTCGGGAGGTTTCGCCCCACGCCCTCTGCTTTGGGAACCCGGGAGGGGCGCTTATGGTGAGGGTGGGGAGGGTGGGGAAGGGGGAGGAGAGCGGTATTCGTGGTGTTCGGAGT; test: pulldown on streptavidin magnetic beads, qPCR; settings: K+ (50 mM potassium phosphate); 50 mM potassium phosphate pH 7.0, room temperature; immobilised compound; more than 50% recovery
[8] = tested on: c-myc-mut95 (DNA, single strand) GAGGTATTTCGGGAGGTTTCGCCACCTTCTTCACTCTCTTCACTCTCTTCATAAGCGCCCCTCCCGGGTTCCCCGGTATTCGTGGTGTTCGGAGT; test: pulldown on streptavidin magnetic beads, qPCR; settings: K+ (50 mM potassium phosphate); 50 mM potassium phosphate pH 7.0, room temperature; immobilised compound; 2 fmol DNA
[9] = tested on: c-myc (DNA, G4) TGAGGGTGGGTAGGGTGGGTAA; test: pulldown on streptavidin magnetic beads, gel electrophoresis; settings: K+ (50 mM potassium phosphate); 5 µM compound, 5 µM DNA, pH 7.0, room temperature
[10] = tested on: TA-core (DNA, G4) TAGGGTTAGGGTTAGGGTTAGGG; test: ITC; settings: K+ (50 mM potassium phosphate); 50 mM KH2PO4-K2HPO4 pH 7.0, 25 °C
[11] = tested on: c-kit (DNA, G4) AGGGAGGGCGCTGGGAGGAGGG; test: ITC; settings: K+ (50 mM potassium phosphate); 50 mM KH2PO4-K2HPO4 pH 7.0, 25 °C
[12] = tested on: c-myc (DNA, G4) TGAGGGTGGGTAGGGTGGGTAA; test: CD melting at 265 nm; settings: K+ (50 mM potassium phosphate); 50 mM potassium phosphate pH 7.0; 1.5 µM DNA, 3.0 µM compound; printed ≧; printed Tms differ by 6.6
[13] = tested on: TA-core (DNA, G4) TAGGGTTAGGGTTAGGGTTAGGG; test: CD melting at 265 nm; settings: K+ (50 mM potassium phosphate); 50 mM potassium phosphate pH 7.0; 1.5 µM DNA, 3.0 µM compound

binding [1]: no | K [2]: 820000 M⁻¹ | ΔTm [3]: > 7.0 °C | K [4]: 3.9e+06 M⁻¹ | K [5]: 8.9e+06 M⁻¹ | ΔTm [6]: 0.1 °C | binding [7]: yes | binding [8]: no | binding [9]: yes | K [10]: 2.1e+06 M⁻¹ | K [11]: 200000 M⁻¹ | ΔTm [12]: > 5.4 °C | ΔTm [13]: 4.8 °C
SMILES: CN1CCCNC(=O)CC[C@H](NC(=O)CCOCCOCCOCCOCCNC(=O)CCCC[C@@H]2SC[C@@H]3NC(=O)N[C@@H]32)C(=O)NCCCN(C)CCCN2C(=O)c3ccc4c5c(ccc(c35)C2=O)C(=O)N(CCC1)C4=O
